Measured values from patent US20090131380A1, “Novel pharmaceutical composition for topical treatment of skin psoriasis and the treatment method thereof” (priority 2007, published 2009).

Key:
skin psoriasis = conditions: cited from earlier work; for clinical antipsoriatic efficacy: topical, 0.05% (w/w) in Locobase® unctuous creme, 50 μg/cm^2/24 h, 35 days; for effect on psoriatic rash (irritation / worsening): topically administered
[1] = tested on: psoriatic plaques (skin psoriasis); experiment: Topical treatment trial of psoriatic plaques in one psoriasis patient (Tetrac, Control and Daivonex regimens); type: in vivo, human; conditions: twice a day
Procedure: A psoriasis patient having almost symmetrical psoriatic plaques on the lateral sides of both elbows (l.dx: 41 cm^2 and l.sin: 44 cm^2) and a psoriatic plaque (53 cm^2) on right calf was chosen for the trial.
a) An ointment (Locobase® unctuous creme, Astellas Pharma A/S Glostrup, Denmark) in which 500 μg/g 3,3′,5,5′-tetraiodothyroacetic acid (0.05%) of GMP-quality (Pharmatory Ltd., Oulu, Finland) was mixed was used as an ex tempore preparation for the concerned treatment purpose (hereinafter referred to as “Tetrac”).
b) A 50 μg/g calcipotriol (0.005%) containing creme (Daivonex®, LEO Pharma A/S, Ballerup, Denmark) was available as commercial pharmaceutical product (hereinafter referred to as “Daivonex®”).
c) A betamethasone 17-valerate-containing creme (Bemetson®, Orion oyj, Espoo, Finland) responding betamethasone 1 mg/g (0.1%) was available as a commercial product (hereinafter referred to as “Bemetson®”).
a) The psoriatic lesion of the left elbow of the patient was selected as the target of the topical treatment with Tetrac, the result of which is shown in left column of FIG. 1—“The Tetrac Regimen”. […]

psoriasis = conditions: topical Triac; WO96/40048; cited from earlier work
plaque psoriasis = conditions: placebo-controlled double-blind study, carried out in 1997; cited from earlier work

SMILES: N[C@H](Cc1cc(I)c(Oc2cc(I)c(O)c(I)c2)c(I)c1)C(=O)O [D-thyroxine]
- clinical antipsoriatic efficacy (skin psoriasis): ineffective
- effect on psoriatic rash (irritation / worsening) (skin psoriasis): do not irritate or worsen psoriatic rash

SMILES: N[C@@H](Cc1cc(I)c(Oc2cc(I)c(O)c(I)c2)c(I)c1)C(=O)O [L-thyroxine]
- effect on psoriatic rash (irritation / worsening) (skin psoriasis): greatly worsen psoriatic rash

SMILES: N[C@@H](Cc1cc(I)c(Oc2ccc(O)c(I)c2)c(I)c1)C(=O)O [L-triiodothyronine]
- effect on psoriatic rash (irritation / worsening) (skin psoriasis): greatly worsen psoriatic rash

SMILES: O=C(O)Cc1cc(I)c(Oc2cc(I)c(O)c(I)c2)c(I)c1 [Tetrac, 3,3′,5,5′-tetraiodothyroacetic acid]
- clinical antipsoriatic effect on psoriatic lesion ([1]; after five weeks, photographs FIG. 1 / FIG. 2): clear clinical antipsoriatic effect
- clinical antipsoriatic effect / healing of psoriatic plaque at end of trial ([1]; six weeks, Bemetson® (betamethasone) concurrently added for the final sixth week): surprisingly more potent clinical antipsoriatic effect
- clinical antipsoriatic efficacy (skin psoriasis): strong clinical antipsoriatic efficacy

SMILES: O=C(O)CCc1cc(I)c(Oc2cc(I)c(O)c(I)c2)c(I)c1 [Tetraprop, 3,3′,5,5′-tetraiodothyropropionic acid]
- clinical antipsoriatic efficacy (skin psoriasis): strong clinical antipsoriatic efficacy

SMILES: O=C(O)Cc1cc(I)c(Oc2ccc(O)c(I)c2)c(I)c1 [Triac, 3,3′5-triiodothyroacetic acid]
- experiment persons in whom an antipsoriatic effect had emerged (psoriasis): 60%
- efficacy in the topical treatment of plaque psoriasis (plaque psoriasis): ineffective
- clinical antipsoriatic efficacy (skin psoriasis): indeed ineffective
- effect on psoriatic rash (irritation / worsening) (skin psoriasis): do not irritate or worsen psoriatic rash
